Experiment [1] concerns the target T1, Vascular endothelial growth factor receptor 2 (Homo sapiens, UniProt P35968). The experiment is described as follows: Inhibition of KDR in presence of 10 uM ATP.
Experiment [2] concerns the target RAC-alpha serine/threonine-protein kinase (Homo sapiens, UniProt P31749). The experiment is described as follows: Inhibition of Akt1.
Experiment [3] concerns the target Serine/threonine-protein kinase PAK 4 (Homo sapiens, UniProt O96013). The experiment is described as follows: Inhibition of Pak4.
The target of experiment [4] is Serine/threonine-protein kinase PLK1 (Homo sapiens, UniProt P53350). Briefly: Inhibition of Plk1.
Chain of Serine/threonine-protein kinase PLK1 (P53350 whole entry): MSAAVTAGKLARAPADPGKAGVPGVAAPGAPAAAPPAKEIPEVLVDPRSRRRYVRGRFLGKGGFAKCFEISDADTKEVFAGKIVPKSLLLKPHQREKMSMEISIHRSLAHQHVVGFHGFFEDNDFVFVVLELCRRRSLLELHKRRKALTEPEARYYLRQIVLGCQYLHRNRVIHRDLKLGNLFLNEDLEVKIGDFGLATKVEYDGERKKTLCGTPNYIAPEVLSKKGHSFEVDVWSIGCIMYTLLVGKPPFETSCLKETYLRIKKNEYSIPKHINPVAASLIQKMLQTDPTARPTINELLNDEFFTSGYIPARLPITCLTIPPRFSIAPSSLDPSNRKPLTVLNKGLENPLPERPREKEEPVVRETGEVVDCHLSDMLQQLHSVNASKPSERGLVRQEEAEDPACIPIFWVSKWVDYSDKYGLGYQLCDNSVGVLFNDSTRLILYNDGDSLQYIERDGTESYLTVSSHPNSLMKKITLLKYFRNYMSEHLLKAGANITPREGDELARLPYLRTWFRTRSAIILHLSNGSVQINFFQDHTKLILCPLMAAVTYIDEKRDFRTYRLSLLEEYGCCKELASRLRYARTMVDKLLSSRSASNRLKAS
A short description of experiment [5]: Inhibition of CK2 at 100 uM.
A short description of experiment [6]: Inhibition of CK2.
The target of experiment [7] is T1, Vascular endothelial growth factor receptor 2. Briefly: Inhibition of KDR in presence of 1 mM ATP.
Experiment [8] addresses Vascular endothelial growth factor receptor 2 (Mus musculus, UniProt P35918). Briefly: Inhibition of VEGF-induced KDR phosphorylation in mouse 3T3 cells. The class given is cell-based, NIH3T3.
Experiment [9] deals with T2, Receptor-type tyrosine-protein kinase FLT3 (Homo sapiens, UniProt P36888).
T2 sequence (P36888 whole entry): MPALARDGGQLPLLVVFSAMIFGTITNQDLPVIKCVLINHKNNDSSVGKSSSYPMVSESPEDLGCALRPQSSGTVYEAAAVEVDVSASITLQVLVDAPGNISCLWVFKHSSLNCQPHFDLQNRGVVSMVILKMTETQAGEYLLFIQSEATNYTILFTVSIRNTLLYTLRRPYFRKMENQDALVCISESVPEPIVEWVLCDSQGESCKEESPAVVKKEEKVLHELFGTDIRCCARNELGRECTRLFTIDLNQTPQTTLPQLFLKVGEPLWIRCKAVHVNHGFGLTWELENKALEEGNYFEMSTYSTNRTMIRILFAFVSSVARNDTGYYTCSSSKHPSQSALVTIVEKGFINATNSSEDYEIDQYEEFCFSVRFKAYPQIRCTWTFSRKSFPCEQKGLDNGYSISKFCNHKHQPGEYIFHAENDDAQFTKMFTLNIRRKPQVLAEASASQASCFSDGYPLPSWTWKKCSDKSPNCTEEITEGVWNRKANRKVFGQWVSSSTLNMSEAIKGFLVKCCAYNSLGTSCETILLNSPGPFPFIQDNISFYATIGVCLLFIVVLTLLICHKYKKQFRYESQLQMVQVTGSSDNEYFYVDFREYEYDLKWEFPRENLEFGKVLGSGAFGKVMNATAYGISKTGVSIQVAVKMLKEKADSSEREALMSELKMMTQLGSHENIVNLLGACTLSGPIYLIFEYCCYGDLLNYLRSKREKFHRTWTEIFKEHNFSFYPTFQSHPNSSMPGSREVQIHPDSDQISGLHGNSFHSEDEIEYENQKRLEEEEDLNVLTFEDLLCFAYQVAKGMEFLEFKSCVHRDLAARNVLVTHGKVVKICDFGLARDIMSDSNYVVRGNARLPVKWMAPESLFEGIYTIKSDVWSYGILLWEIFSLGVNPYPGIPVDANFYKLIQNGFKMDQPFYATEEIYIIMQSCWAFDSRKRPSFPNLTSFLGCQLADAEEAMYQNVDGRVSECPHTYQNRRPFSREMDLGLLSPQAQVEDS
The experiment is described as follows: Inhibition of Flt3.

The target in experiment [10] is Mast/stem cell growth factor receptor Kit (Homo sapiens, UniProt P10721). The experiment is described as follows: Inhibition of cKit.

pIC50: −log10 of the molar value. A value given as a limit tells only on which side of the number the result lay.

Experimental findings from ChEMBL document CHEMBL1144750, “Scaffold oriented synthesis. Part 2: Design, synthesis and biological evaluation of pyrimido-diazepines as receptor tyrosine kinase inhibitors” (Bioorg Med Chem Lett, 2008) are described below.

Chain of RAC-alpha serine/threonine-protein kinase (P31749 whole entry): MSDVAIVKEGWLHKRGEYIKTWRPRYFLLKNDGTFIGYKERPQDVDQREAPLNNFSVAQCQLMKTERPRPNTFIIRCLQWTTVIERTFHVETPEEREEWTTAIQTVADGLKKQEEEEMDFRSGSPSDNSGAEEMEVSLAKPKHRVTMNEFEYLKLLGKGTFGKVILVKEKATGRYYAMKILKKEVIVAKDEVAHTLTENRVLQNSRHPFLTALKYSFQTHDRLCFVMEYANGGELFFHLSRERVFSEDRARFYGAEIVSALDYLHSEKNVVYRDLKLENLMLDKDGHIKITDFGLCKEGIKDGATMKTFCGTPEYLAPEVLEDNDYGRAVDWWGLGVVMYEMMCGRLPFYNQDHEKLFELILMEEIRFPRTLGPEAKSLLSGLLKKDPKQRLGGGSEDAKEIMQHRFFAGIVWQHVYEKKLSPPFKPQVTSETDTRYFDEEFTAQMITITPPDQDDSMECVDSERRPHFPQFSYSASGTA
T1 sequence (P35968 whole entry): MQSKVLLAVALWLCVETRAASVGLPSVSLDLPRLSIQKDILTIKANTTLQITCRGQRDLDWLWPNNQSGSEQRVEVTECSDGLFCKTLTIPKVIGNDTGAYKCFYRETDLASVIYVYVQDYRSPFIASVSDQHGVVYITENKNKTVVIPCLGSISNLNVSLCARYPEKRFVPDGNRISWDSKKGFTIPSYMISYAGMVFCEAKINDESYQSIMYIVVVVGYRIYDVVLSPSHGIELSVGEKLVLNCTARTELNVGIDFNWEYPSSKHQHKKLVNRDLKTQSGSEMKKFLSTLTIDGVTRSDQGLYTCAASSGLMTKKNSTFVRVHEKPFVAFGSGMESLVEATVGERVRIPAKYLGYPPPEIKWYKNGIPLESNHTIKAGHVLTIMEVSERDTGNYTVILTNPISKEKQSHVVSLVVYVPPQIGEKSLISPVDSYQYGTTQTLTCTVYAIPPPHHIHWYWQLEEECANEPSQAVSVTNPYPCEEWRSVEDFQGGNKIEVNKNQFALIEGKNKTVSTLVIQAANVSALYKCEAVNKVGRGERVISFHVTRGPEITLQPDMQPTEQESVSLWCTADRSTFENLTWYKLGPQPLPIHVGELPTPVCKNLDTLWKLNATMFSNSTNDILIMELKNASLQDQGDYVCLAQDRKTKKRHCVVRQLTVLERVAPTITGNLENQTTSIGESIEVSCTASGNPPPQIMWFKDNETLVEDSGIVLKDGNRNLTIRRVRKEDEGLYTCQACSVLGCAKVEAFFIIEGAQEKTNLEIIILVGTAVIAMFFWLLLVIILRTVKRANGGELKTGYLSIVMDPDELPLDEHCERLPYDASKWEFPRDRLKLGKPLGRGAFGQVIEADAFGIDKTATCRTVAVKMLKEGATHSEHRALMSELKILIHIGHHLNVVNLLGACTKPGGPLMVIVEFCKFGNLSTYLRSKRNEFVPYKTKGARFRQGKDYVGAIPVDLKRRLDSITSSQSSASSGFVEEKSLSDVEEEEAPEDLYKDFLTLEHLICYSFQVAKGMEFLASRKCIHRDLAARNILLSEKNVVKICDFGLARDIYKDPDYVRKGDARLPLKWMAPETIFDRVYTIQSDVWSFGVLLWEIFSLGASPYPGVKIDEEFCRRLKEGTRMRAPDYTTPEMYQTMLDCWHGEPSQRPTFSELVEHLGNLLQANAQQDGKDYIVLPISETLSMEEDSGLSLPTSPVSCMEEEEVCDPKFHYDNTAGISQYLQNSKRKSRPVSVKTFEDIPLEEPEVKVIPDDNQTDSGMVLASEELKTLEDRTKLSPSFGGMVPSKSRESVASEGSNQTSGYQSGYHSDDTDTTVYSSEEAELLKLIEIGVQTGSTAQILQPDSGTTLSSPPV
Chain of Vascular endothelial growth factor receptor 2 (Mus musculus, UniProt P35918) (P35918 whole entry): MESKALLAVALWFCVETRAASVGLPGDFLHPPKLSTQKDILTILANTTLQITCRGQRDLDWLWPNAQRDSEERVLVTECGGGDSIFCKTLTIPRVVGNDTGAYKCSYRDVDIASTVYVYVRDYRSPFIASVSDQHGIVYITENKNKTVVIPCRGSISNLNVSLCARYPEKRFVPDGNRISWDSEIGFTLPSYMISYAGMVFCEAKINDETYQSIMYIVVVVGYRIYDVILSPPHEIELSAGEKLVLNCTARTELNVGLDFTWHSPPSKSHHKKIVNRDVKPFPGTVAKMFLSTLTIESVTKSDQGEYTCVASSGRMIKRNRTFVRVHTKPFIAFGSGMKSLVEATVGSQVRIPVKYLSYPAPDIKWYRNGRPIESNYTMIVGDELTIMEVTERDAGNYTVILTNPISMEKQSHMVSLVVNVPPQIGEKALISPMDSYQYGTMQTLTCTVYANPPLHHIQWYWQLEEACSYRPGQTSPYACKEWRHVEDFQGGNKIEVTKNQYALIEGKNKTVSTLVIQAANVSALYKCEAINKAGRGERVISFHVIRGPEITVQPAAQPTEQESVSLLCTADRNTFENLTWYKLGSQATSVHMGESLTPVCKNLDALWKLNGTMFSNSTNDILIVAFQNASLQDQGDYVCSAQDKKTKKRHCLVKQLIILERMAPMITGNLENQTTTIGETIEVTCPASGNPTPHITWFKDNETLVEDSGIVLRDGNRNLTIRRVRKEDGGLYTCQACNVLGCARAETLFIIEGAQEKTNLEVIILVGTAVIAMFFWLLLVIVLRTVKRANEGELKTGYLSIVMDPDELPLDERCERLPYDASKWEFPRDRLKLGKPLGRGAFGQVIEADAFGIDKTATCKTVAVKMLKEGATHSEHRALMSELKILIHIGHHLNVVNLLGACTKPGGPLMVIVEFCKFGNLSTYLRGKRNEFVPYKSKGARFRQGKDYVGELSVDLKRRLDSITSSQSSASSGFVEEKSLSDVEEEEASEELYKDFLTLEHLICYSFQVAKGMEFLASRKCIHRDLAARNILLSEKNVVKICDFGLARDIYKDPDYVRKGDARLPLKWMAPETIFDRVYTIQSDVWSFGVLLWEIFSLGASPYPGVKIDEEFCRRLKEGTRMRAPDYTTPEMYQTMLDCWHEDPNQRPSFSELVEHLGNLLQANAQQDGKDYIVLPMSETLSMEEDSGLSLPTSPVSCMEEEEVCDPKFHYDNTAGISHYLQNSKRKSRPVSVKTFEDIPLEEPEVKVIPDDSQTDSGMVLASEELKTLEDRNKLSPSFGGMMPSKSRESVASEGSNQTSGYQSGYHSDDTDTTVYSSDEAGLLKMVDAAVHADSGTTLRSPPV
Chain of Serine/threonine-protein kinase PAK 4 (O96013 whole entry): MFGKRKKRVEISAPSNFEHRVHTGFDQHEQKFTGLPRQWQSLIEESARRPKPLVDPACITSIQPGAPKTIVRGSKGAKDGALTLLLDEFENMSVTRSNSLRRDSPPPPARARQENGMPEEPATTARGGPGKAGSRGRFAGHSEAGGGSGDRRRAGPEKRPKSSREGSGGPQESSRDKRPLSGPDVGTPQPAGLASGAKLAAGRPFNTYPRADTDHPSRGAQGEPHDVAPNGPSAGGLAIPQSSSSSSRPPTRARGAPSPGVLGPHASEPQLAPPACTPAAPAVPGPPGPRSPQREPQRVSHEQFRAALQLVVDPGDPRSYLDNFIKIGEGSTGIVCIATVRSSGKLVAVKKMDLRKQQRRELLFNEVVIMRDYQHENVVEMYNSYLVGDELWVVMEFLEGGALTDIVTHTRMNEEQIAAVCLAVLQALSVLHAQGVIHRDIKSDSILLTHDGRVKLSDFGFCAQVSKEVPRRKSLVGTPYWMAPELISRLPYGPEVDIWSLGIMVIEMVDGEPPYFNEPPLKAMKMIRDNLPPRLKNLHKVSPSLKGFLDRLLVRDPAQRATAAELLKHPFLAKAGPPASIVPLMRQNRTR

Broadly, the pIC50 is the negative decadic logarithm of the IC50, by convention in mol/L. The term inhibition denotes the percentage by which the read-out fell short of the control. Read a high inhibition as strong suppression. With `Nc1ncnc2c1N=C(c1cccc(Cl)c1)CCN2`, the pIC50 in experiment [1] is 6.22; in experiment [2], < 4.00; in experiment [3], < 4.00; in experiment [4], < 4.00. The compound also had an inhibition in experiment [5] of 64%.
Turning to `Nc1nc(N)c2c(n1)NCCC(c1ccc(Cl)cc1)=N2`, the pIC50 in [1] was 5.05; in experiment [2], < 4.00; in experiment [6] it was < 4.00; in experiment [3], < 4.00; in experiment [4], < 4.00.
Regarding `Nc1ncnc2c1N=C(c1ccc(NC(=O)Nc3ccccc3)cc1)CCN2`, the pIC50 in experiment [7] was 6.02.
Take `Nc1ncnc2c1N=C(c1ccc(NC(=O)Nc3cccc(C(F)(F)F)c3F)cc1)CCN2`: the pIC50 is 7.31 in experiment [7], 5.82 in [8], 8.52 in experiment [9] and 7.55 in experiment [10].
With `Nc1ncnc2c1N=C(c1ccc(NC(=O)Nc3cccc(Cl)c3)cc1)CCN2`, the pIC50 in experiment [7] was 7.72; in experiment [8], 7.30; in experiment [9], 8.22; in experiment [10], 7.74.
Taken in the same sequence, the figures for `Cc1ccc(F)c(NC(=O)Nc2ccc(C3=Nc4c(N)ncnc4NCC3)cc2)c1` were 7.19, 6.51, 7.89 and 7.43.
Consider `Cc1ccc(C2=Nc3c(N)ncnc3NCC2)cc1NC(=O)Nc1cccc(C(F)(F)F)c1`, for which the pIC50 in experiment [8] was 7.28; in experiment [10], 7.92.
Turning to `Nc1ncnc2c1N=C(c1ccc(NC(=O)Nc3ccc(F)c(C(F)(F)F)c3)cc1)CCN2`, the negative logarithm of the IC50 (pIC50) is 8.30 in experiment [7], 6.46 in experiment [8], 8.15 in [9] and 7.66 in experiment [10].
`Nc1nc(N)c2c(n1)NCCC(c1ccc(NC(=O)Nc3ccccc3)cc1)=N2`: the results for the pIC50 in [7], in [9] and in experiment [10] were 5.54, 5.54 and < 4.89, respectively.
Regarding `Cc1cccc(C2=Nc3c(N)ncnc3NCC2)c1`, the negative logarithm of the IC50 (pIC50) in experiment [1] is 5.52; in experiment [2], < 4.00; in experiment [6] it was 4.92; in experiment [3], < 4.00; in experiment [4], 4.30.
As for `Nc1ncnc2c1N=C(c1ccc(NC(=O)Nc3ccc(Cl)c(C(F)(F)F)c3)cc1)CCN2`, the negative logarithm of the IC50 (pIC50) in [7] is 8.22; in experiment [8], 7.31; in experiment [9] it was 7.80; in experiment [10] it was 7.30.
Turning to `Nc1nc(N)c2c(n1)NCCC(c1ccccc1)=N2`, the pIC50 in [1] is 4.46; in [2], < 4.00; in experiment [6], < 4.00; in experiment [3], < 4.00; in [4], < 4.00.
Consider `Nc1ncnc2c1N=C(c1ccc(NC(=O)Nc3ccc(C(F)(F)F)cc3)cc1)CCN2`, for which the pIC50 in [7] is 6.96; in [8] it was 5.61; in [9], 8.05; in [10] it was 7.46.
As for `Nc1ncnc2c1N=C(c1ccc(NC(=O)Nc3cc(C(F)(F)F)ccc3F)cc1)CCN2`, the negative logarithm of the IC50 (pIC50) in [7] is 8.40; in experiment [8] it was 6.92.
With `Nc1ncnc2c1N=C(c1ccc(Cl)cc1)CCN2`, the pIC50 is 5.52 in [1]; < 4.00 in experiment [2]; < 4.00 in [6]; < 4.00 in experiment [3]; < 4.00 in [4].
As to `Nc1ncnc2c1N=C(c1cccc(NC(=O)Nc3ccccc3)c1)CCN2`, the pIC50 was 6.05 in experiment [7], 5.57 in experiment [9] and 5.52 in experiment [10].
In the case of `Nc1ncnc2c1N=C(c1ccccc1)CCN2`, the negative-log IC50 (pIC50) in experiment [1] is 5.52; in experiment [2], 4.04; in experiment [6], 5.40; in experiment [3], < 4.00; in [4], < 4.00.
For the compound `Nc1ncnc2c1N=C(c1cccc(NC(=O)Nc3cccc(C(F)(F)F)c3)c1)CCN2`, the figures for the negative logarithm of the IC50 (pIC50) in [8] and in experiment [10] were 6.10 and 7.04, respectively.
On to `Nc1ncnc2c1N=C(c1ccc(NC(=O)Nc3cccc(C(F)(F)F)c3)cc1)CCN2`, for which the negative-log IC50 (pIC50) was 8.52 in [7], 7.89 in [8] and 8.70 in [9].
For `Nc1nc(N)c2c(n1)NCCC(c1cccc(Cl)c1)=N2`, the pIC50 is 4.68 in experiment [1], < 4.00 in experiment [2], < 4.00 in experiment [3] and < 4.00 in [4].
Regarding `Cc1ccc(C2=Nc3c(N)ncnc3NCC2)cc1`, the negative-log IC50 (pIC50) is 5.40 in experiment [1]; < 4.00 in experiment [2]; < 4.00 in [6]; < 4.00 in experiment [3]; < 4.00 in experiment [4].
